Experimental findings from ChEMBL document CHEMBL1135198, “Structure-activity relationships of non-imidazole H(3) receptor ligands. Part 1” (Bioorg Med Chem Lett, 2002) are described below.

One assay deals with Histamine H1 receptor (Homo sapiens, UniProt P35367). Kind of assay: Binding affinity for the human Histamine H1 Receptor.
Another assay concerns the target Histamine H3 receptor (Rattus norvegicus, UniProt Q9QYN8). Kind of assay: Binding affinity for the rat cortical Histamine H3 receptor.
In a further assay the target is Histamine H2 receptor (Homo sapiens, UniProt P25021). Kind of assay: Binding affinity for the human Histamine H2 receptor.
Chain of Histamine H2 receptor (P25021 whole entry): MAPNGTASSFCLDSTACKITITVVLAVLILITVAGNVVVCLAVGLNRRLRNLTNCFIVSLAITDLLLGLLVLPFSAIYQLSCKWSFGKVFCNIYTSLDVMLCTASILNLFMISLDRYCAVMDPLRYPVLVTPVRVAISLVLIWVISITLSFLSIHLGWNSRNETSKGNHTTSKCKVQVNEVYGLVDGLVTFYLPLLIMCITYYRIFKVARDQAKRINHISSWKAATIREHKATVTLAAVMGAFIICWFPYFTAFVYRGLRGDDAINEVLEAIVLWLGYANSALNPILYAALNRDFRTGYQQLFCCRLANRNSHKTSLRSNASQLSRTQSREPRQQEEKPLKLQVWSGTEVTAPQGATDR

Chain of Histamine H3 receptor (Q9QYN8 whole entry): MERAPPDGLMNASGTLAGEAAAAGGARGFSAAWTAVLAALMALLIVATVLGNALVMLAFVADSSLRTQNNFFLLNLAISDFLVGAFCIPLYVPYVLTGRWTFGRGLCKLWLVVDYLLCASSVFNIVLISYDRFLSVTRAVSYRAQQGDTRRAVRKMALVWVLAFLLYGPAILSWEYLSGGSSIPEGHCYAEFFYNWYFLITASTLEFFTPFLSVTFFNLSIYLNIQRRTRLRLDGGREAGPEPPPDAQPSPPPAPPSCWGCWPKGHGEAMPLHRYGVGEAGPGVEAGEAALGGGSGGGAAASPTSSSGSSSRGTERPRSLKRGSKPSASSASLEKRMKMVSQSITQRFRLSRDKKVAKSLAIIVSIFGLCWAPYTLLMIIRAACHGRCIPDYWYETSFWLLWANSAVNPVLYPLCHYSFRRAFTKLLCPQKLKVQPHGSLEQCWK
Chain of Histamine H1 receptor (P35367 whole entry): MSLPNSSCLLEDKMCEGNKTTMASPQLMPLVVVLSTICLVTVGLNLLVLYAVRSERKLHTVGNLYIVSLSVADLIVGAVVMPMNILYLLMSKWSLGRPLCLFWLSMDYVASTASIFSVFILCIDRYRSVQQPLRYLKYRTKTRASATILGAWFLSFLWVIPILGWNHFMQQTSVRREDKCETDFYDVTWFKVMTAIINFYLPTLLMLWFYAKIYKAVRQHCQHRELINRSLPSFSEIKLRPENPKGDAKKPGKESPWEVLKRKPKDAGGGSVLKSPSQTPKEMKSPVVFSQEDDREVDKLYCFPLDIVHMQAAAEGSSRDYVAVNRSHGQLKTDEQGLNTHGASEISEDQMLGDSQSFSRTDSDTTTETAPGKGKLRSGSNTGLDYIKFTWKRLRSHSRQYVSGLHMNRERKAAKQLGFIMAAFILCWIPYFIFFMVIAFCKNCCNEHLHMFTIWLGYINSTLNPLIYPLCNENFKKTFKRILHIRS

The Ki is a dissociation constant, usually derived from enzyme kinetics or from competition with a known ligand. A low value points to tighter binding. With `CCOC(=O)N1CCN(CCCOc2ccc(C(=O)CC)cc2)CC1`, the Ki on Histamine H1 receptor is 1660 nM; on Histamine H3 receptor, 5.37 nM; on Histamine H2 receptor, 56200 nM.
On the same counts, the results for `CCCCCC(=O)c1ccc(OCCCN2CCN(C(=O)OCCCC)CC2)cc1` are 575 nM, 20.4 nM and 1860 nM.
